Here are results for 24 compounds from patent US11008323B2, “Substituted tricyclic 1,4-benzodiazepinone derivatives as allosteric modulators of group II metabotropic glutamate receptors” (Domain Therapeutics, priority 2015, dated 2021).

Structures can show the parent of a compound that is named as a salt. Where only a bound is given, the exact number is not on record here.

Broadly, the melting point is the temperature of the solid-liquid transition. `Cc1cc(-c2ccc3c(c2)-n2nc(-c4ccccc4)cc2C(=O)N(C)C32CC2)ccn1` (as salt: hydrochloride) [Example 122, 9-(2-Methyl-pyridin-4-yl)-5-methyl-2-phenyl-spiro[benzo[f]pyrazolo[1,5-a][1,4]diazepine-6,1′-cyclopropan]-4(5H)-one] yielded a melting point greater than 250 °C.

Turning to `CN1C(=O)c2cc(-c3ccccc3)cn2-c2cc(-c3ccc(N)nc3)ccc2C12CC2` (as salt: hydrochloride) [Example 96, 5-Methyl-2-phenyl-9-(6-amino-pyridin-3-yl)-spiro[benzo[f]pyrrolo[1,2-a][1,4]diazepine-6,1′-cyclopropan]-4(5H)-one], the melting point is greater than 250 °C.

For the compound `Cc1ncccc1-c1cc2c(cc1F)C1(CC1)N(C)C(=O)c1cccn1-2` (as salt: hydrochloride) [Example 77, 8-Fluoro-5-methyl-9-(2-methyl-pyridin-3-yl)-spiro[benzo[f]pyrrolo[1,2-a][1,4]diazepine-6,1′-cyclopropan]-4(5H)-one], the melting point lay in the range of 200 to 210 °C.

On to `Cc1cc(-c2ccc3c(c2)-n2cc(-c4ccccc4)cc2C(=O)N(C)C32CC2)cc(C)n1` (as salt: hydrochloride) [Example 97, 5-Methyl-2-phenyl-9-(2,6-dimethyl-pyridin-4-yl)-spiro[benzo[f]pyrrolo[1,2-a][1,4]diazepine-6,1′-cyclopropan]-4(5H)-one], for which the melting point fell in the range of 227 to 234 °C.

`Cc1ncccc1-c1ccc2c(c1)-n1cccc1C(=O)N(C)C2C` (stereo not drawn) (as salt: hydrochloride) [Example 218, 5,6-Dimethyl-9-(2-methyl-pyridin-3-yl)-5,6-dihydro-benzo[f]pyrrolo[1,2-a][1,4]diazepin-4-one]: the melting point was 140 to 156 °C.

Consider `CN1C(=O)c2cccn2-c2cc(-c3cnc(N)c(C(F)(F)F)c3)ccc2C12CC2` (as salt: hydrochloride) [Example 40, 5-Methyl-9-(6-amino-5-trifluoromethyl-pyridin-3-yl)-spiro[benzo[f]pyrrolo[1,2-a][1,4]diazepine-6,1′-cyclopropan]-4(5H)-one], for which the melting point was greater than 250 °C.

As for `CN1C(=O)c2cccn2-c2cc(C3=CCN(c4ccncn4)CC3)ccc2C12CC2` (as salt: hydrochloride) [Example 47, 5-Methyl-9-(1-pyrimidin-4-yl-1,2,3,6-tetrahydro-pyridin-4-yl)-spiro[benzo[f]pyrrolo[1,2-a][1,4]diazepine-6,1′-cyclopropan]-4(5H)-one], the melting point lay within 210 to 220 °C.

In the case of `Cc1ncccc1-c1ccc2c(c1)-n1nccc1C(=O)N(C)C2` (as salt: hydrochloride) [Example 217, 5-Methyl-9-(2-methylpyridin-3-yl)-5,6-dihydro-4H-benzo[f]pyrazolo[1,5-a][1,4]diazepin-4-one], the melting point lay within 120 to 140 °C.

Turning to `CCc1ncccc1-c1ccc2c(c1)-n1cc(CO)cc1C(=O)N(C)C21CC1` (as salt: hydrochloride) [Example 203], the melting point is greater than 250 °C.

In turn, `CN1C(=O)c2cccn2-c2cc(-c3ccc(N4CCCCC4)nc3)ccc2C12CC2` (as salt: hydrochloride) [Example 43, 5-Methyl-9-(3,4,5,6-tetrahydro-2H-[1,2′]bipyridinyl-5′-yl)-spiro[benzo[f]pyrrolo[1,2-a][1,4]diazepine-6,1′-cyclopropan]-4(5H)-one] had a melting point of 188 to 193 °C.

Take `Cc1ncccc1-c1ccc2c(c1)-n1cc(-c3ncc[nH]3)cc1C(=O)N(C)C21CC1` (as salt: hydrochloride) [Example 184]: the melting point was greater than 250 °C.

For `CC(=O)c1cc2n(c1)-c1cc(-c3cccnc3C)ccc1C1(CC1)N(C)C2=O` (as salt: hydrochloride) [Example 195], the melting point lay within 200 to 220 °C.

Turning to `Cc1ncccc1-c1ccc2c(c1)-n1ccnc1C(=O)N(C)C2` (as salt: hydrochloride) [Example 216, 5-Methyl-9-(2-methylpyridin-3-yl)-5,6-dihydro-4H-benzo[f]imidazo[1,2-a][1,4]diazepin-4-one], the melting point lay within 210 to 230 °C.

Take `[2H]C([2H])([2H])N1C(=O)c2cc(C(=O)O)cn2-c2cc(-c3ccc(F)nc3)ccc2C12CC2` [Example 178, 5-(Methyl-d3)-9-(6-fluoro-pyridin-3-yl)-4-oxo-4,5-dihydrospiro[benzo[f]pyrrolo[1,2-a][1,4]diazepine-6,1′-cyclopropane]-2-carboxylic acid]: the melting point is greater than 250 °C.

`Cc1ccc(-c2ccc3c(c2)-n2cc(-c4ccnn4C)cc2C(=O)N(C)C32CC2)cn1` (as salt: hydrochloride) [Example 159]: the melting point was 187 to 194 °C.

For `Cc1ncccc1-c1ccc2c(c1)-n1cc(-c3cccnc3)cc1C(=O)N(C)C21CC1` (as salt: hydrochloride) [Example 143], the melting point was greater than 250 °C.

`Cc1ncccc1-c1ccc2c(c1)-n1nc(-c3ccccc3)cc1C(=O)N(C)C21CC1` (as salt: hydrochloride) [Example 125, 9-(2-Methyl-pyridin-3-yl)-5-methyl-2-phenyl-spiro[benzo[f]pyrazolo[1,5-a][1,4]diazepine-6,1′-cyclopropan]-4(5H)-one] returned a melting point of 185 to 206 °C.

For `Cc1ncccc1-c1ccc2c(c1)-n1cc(C3CC3)cc1C(=O)N(C)C21CC1` (as salt: hydrochloride) [Example 155], the melting point was 190 to 198 °C.

Compound `CN(C)c1ncccc1-c1ccc2c(c1)-n1cc(-c3ccccc3)cc1C(=O)N(C)C21CC1` (as salt: hydrochloride) [Example 119, 5-Methyl-2-phenyl-9-(2-dimethylamino-pyridin-3-yl)-spiro[benzo[f]pyrrolo[1,2-a][1,4]diazepine-6,1′-cyclopropan]-4(5H)-one] gave a melting point of 209 to 213 °C.

As for `CN(C)c1ccc2c(c1)-n1cc(-c3ccccc3)cc1C(=O)N(C)C21CC1` (as salt: hydrochloride) [Example 115, 9-Dimethylamino-5-methyl-2-phenyl-spiro[benzo[f]pyrrolo[1,2-a][1,4]diazepine-6,1′-cyclopropan]-4(5H)-one], the melting point fell in the range of 160 to 170 °C.

For the compound `CCc1cc2n(c1)-c1cc(-c3cccnc3C)ccc1C1(CC1)N(C)C2=O` (as salt: hydrochloride) [Example 197], the melting point lay in the range of 165 to 175 °C.

As for `Cc1ncccc1-c1ccc2c(c1)-n1cc(-c3ccccc3)nc1C(=O)N(C)C2` (as salt: hydrochloride) [Example 166, 5-Methyl-9-(2-methylpyridin-3-yl)-2-phenyl-5,6-dihydro-4H-benzo[f]imidazo[1,2-a][1,4]diazepin-4-one], the melting point is 240 to 245 °C.

`CC1c2ccc(-c3ccc(N(C)C)nc3)cc2-n2cccc2C(=O)N1C` (stereo not drawn) (as salt: hydrochloride) [Example 219, 9-(6-Dimethylamino-pyridin-3-yl)-5,6-dimethyl-5,6-dihydro-benzo[f]pyrrolo[1,2-a][1,4]diazepin-4-one] showed a melting point of 145 to 162 °C.

Consider `Cc1ncccc1-c1ccc2c(c1)-n1cc(C(=O)C3CCCC3)cc1C(=O)N(C)C21CC1` (as salt: hydrochloride) [Example 194], for which the melting point lay in the range of 177 to 190 °C.
